In US11884685B2, “Rhenium complexes and methods of use for treating cancer” (CORNELL UNIVERSITY, priority 2018, dated 2024):

Tests used:
HEK293 (kidney) cells = test: MTT cell viability (cytotoxicity); type: cell-based; conditions: 48 hours incubation, non-cancer cell line
Method: (§1) All compounds were dissolved in PBS at pH 7.4 to prepare 1-2 mM stock solutions. For cell viability studies, all cells were grown to 80-90% confluence, detached with trypsin/EDTA, seeded in 96-well plates at 4000-8000 cells/well in 100 μL of growth media, and incubated for 24 hours. The medium was removed and replaced with fresh medium (200 μL) containing varying dilutions of either the rhenium compounds, cisplatin, or media. The cells were then incubated for 48 hours. The medium was removed from the wells, and 3-(4,5-dimethylthiazol-2-yl)-[…] (MTT) in DMEM, RPMI, or MEM (200 μL, 1 mg/mL) was added. The additional 48 hours incubation was performed to ensure that the cells were in the logarithmic growth phase and that the cells had adequate time to regrow after exposure to the complexes. After 4 hours, the MTT/DMEM, RPMI, or MEM solution was removed, and the formazan crystals were dissolved in 200 μL of an 8:1 mixture of DMSO and pH 10 glycine buffer. The absorbance at 570 nm in each well was measured using a BioTek Synergy HT plate reader. Cell viability was determined by normalizing the absorbance of the treated wells to untreated wells. The % viability data shown is an average of three independent experiments with six replicates per concentration

[1] = system: A2780 (ovarian cancer) cells; test: MTT cell viability (cytotoxicity); type: cell-based; conditions: 48 hours incubation
Method: as §1

[2] = system: HeLa (cervical cancer) cells; test: MTT cell viability (cytotoxicity); type: cell-based; conditions: 48 hours incubation
Method: as §1

A549 (lung cancer) cells = test: MTT cell viability (cytotoxicity); type: cell-based; conditions: 48 hours incubation
Method: as §1

[3] = system: A2780CP70 (cisplatin-resistant ovarian cancer) cells; test: MTT cell viability (cytotoxicity); type: cell-based; conditions: 48 hours incubation, read-out: IC50 A2780 CP70 (cisplatin-resistant ovarian cancer)
Method: as §1

[4] = system: cytochrome c release from the mitochondria; conditions: flow cytometry
[5] = system: eIF2α phosphorylation, ATF4, CHOP in A2780 cells
From the text: (§2) Salubrinal operates by inhibiting dephosphorylation of the master regulatory protein eukaryotic initiation factor 2α (eIF2α), an integral component of the UPR. […] Next, the downstream effects of eIF2α phosphorylation were investigated. The most immediate and pronounced effect of eIF2α phosphorylation is the inhibition of translation (S. R. Kimball, Int. J. Biochem. Cell Biol. 1999, 31, 25-29).
(§3) Hyperphosphorylation of eIF2α can lead to apoptosis via upregulation of the stress-related transcription factors ATF4 and CHOP (H. Matsumoto et al., Biol. Open 2013, 2, 1084-1090). […] Phosphorylation of eIF2α also results in cell cycle arrest in the G1 phase (J. W. Brewer et al., Proc. Natl. Acad. Sci. U.S.A. 2000, 97, 12625-12630).

cells = conditions: vs untreated cells
From the text: as §3

HeLa cells [6] = system: HeLa cells
LC3 in A2780 cells = conditions: after 24 hours
[7] = system: National Cancer Institute (NCI)-60 cell line panel
[8] = system: proteasome inhibition, HSP90 inhibition, reactive oxygen species generation
[9] = system: mutant MEF cell line incapable of eIF2α phosphorylation; conditions: mutant cells after treatment
From the text: as §2

A2780 cells = system: A2780 cells
From the text: as §2

HeLa cells [10] = conditions: 5 μM, within 30 minutes, vs untreated cells
From the text: Phosphorylation of eIF2α often occurs due to the accumulation of misfolded proteins.

| Molecule | IC50 (HEK293 (kidney) cells) [µM] | IC50 [1] [µM] | IC50 [2] [µM] | IC50 (A549 (lung cancer) cells) [µM] | IC50 [3] [µM] | cytochrome c release from mitochondria [4] | ATF4 and CHOP expression ([5]; Western blot) | eIF2α phosphorylation ([5]; as little as 2 hours after exposure) | increase in population of cells in the G1 phase (cells) [%] | mitochondrial morphology (HeLa cells [6]; HeLa cells, 5 μM, after only 30 minutes) | mitochondrial polarization (JC-1) (HeLa cells [6]; ratiometric sensor JC-1) | LC3II expression relative to LC3I (LC3 in A2780 cells) | activity across NCI-60 cell line panel [7] | protein misfolding via proteasome inhibition, HSP90 inhibition, or ROS generation [8] | translation levels in eIF2α mutant MEF cells [9] | puromycin incorporation (translation) (A2780 cells; 5 μM, as early as 2 hour post incubation, vs untreated controls) | factor of increase in activity in presence of salubrinal (A2780 cells; 25 μM salubrinal) | fluorescence intensity of ThT (protein aggregates) (HeLa cells [10]) |
| --- | --- | --- | --- | --- | --- | --- | --- | --- | --- | --- | --- | --- | --- | --- | --- | --- | --- | --- |
| N.N.[Cl][Pt][Cl] [Cisplatin, cisplatin] | 1.7 ± 0.2 | 1.3 ± 0.1 | 6.6 ± 0.7 | 5.6 ± 0.5 | 12 ± 3 | – | – | – | – | – | – | – | – | – | – | – | – | – |
| [Re(CO)3(dmphen)(p-tol-ICN)]Cl [TRIP] | 1.9 ± 0.2 | 1.7 ± 0.7 | 1.4 ± 0.2 | 1.4 ± 0.6 | 1.9 ± 1 | Cytochrome c release occurs on the same time scale as apoptosis induction | both ATF4 and CHOP were upregulated | induction of eIF2α phosphorylation | 18 | significantly rounded and punctate | mitochondria remained functional | large increase in LC3II expression relative to LC3I | most potent in melanoma and breast cancer cells lines and least effective in lung and renal cancer cell lines | no evidence has been found | no changes in translation levels | substantially less puromycin | 4 | increased significantly |
| Cc1ccc2ccc3ccc(C)nc3c2n1.[C-]#[O+].[C-]#[O+].[C-]#[O+].[Re+] [Neo-Re, [Re(CO)3(dmphen)(OH2)]^+] | 9 ± 0.3 | 5.7 ± 0.6 | 4.4 ± 1.3 | 7.7 ± 2.4 | 6 ± 0.2 | – | – | – | – | – | – | – | – | – | – | – | – | – |
